The values below come from US7709539B2, “Therapeutic use of resveratrol for hyperglycemia” (Chang Gung University, priority 2004, dated 2010).

Holding throughout (assay type): in vivo, rat
For one experiment, the system named is IDDM SD rats. Nature of the experiment: Antihyperglycemic effect in IDDM SD rats (STZ-induced). As to conditions: 90 min after drug feeding. How it is done:
Resveratrol was first dissolved in DMS0 and diluted to 0.05 mg, 0.1 mg and 0.5 mg per ml wit normal saline. Animals were fed with desired amounts of drug solutions though tubing from the mouth into the stomach. Male rats were fasted for […] and anesthetized by intraperitoneal injection of pentobarbital at 30 mg/kg body weight. Animals were then injected with freshly prepared streptozotocin (STZ) solution at 65 mg/kg body weight intravenously. Three days later, blood sugar was measured. Animals with blood sugar levels above 400 mg/dl and symptoms of polyphagia, polyuria and polydipsia are classified as being induced to IDDM. Normal, IDDM, and NIDDM SD rats were fasted for 8 hrs and anesthetized by pentobarbital (30 mg/kg, ip). Animals were fed with different dosages of resveratrol (0.05 mg, 0.1 mg, or 0.5 mg per kg body weight), and blood samples were then collected from femoral vein at the time points 0, 60, 90, and 120 min. Ten μl plasma was mixed with 1 ml glucose kit reagent and incubated at 37° C. for 10 min. The blood sugar level was determined as described. Data were expressed as mean±standard error (S.E.). […] IDDM SD rats were fed with resveratrol at 0.05 mg, 0.1 mg, or 0.5 mg per kg body weight and the blood sugar was measured at 90 min after drug feeding.

Experiment [1] relates to NIDDM insulin-resistant SD rats. Nature of the experiment: Antihyperglycemic effect in NIDDM insulin-resistant SD rats (insulin-induced). How it is done:
Resveratrol was first dissolved in DMS0 and diluted to 0.05 mg, 0.1 mg and 0.5 mg per ml wit normal saline. Animals were fed with desired amounts of drug solutions though tubing from the mouth into the stomach. A. Insulin Resistance: Male SD rats were intraperitoneally injected with insulin (Monotard®HM; Novo Nordisk, Bagsvaerd, Denmark, 0.5 IU/kg, tid) for 2 weeks. The development of insulin resistance is confirmed by a tolbutamide test (11). Normal, IDDM, and NIDDM SD rats were fasted for 8 hrs and anesthetized by pentobarbital (30 mg/kg, ip). Animals were fed with different dosages of resveratrol (0.05 mg, 0.1 mg, or 0.5 mg per kg body weight), and blood samples were then collected from femoral vein at the time points 0, 60, 90, and 120 min. Ten μl plasma was mixed with 1 ml glucose kit reagent and incubated at 37° C. for 10 min. The blood sugar level was determined as described. […]. Data were expressed as mean±standard error (S.E.). Statistical analysis was performed using ANOVA (analysis of variance) followed by Dunnett test, and the significant difference was set at P<0.05. NIDDM rats were fed with resveratrol and blood sugar was then measured as described.

The test system of a further experiment is NIDDM SD rats. In words: Antihyperglycemic effect in NIDDM SD rats (nicotinamide/STZ-induced). As to conditions: 0.1 mg/kg oral. How it is done: Resveratrol was first dissolved in DMS0 and diluted to 0.05 mg, 0.1 mg and 0.5 mg per ml wit normal saline. Animals were fed with desired amounts of drug solutions though tubing from the mouth into the stomach. B. NIDDM: Male SD rats were fasted for 48 hrs and anesthetized by intraperitoneal injection of pentobarbital at 30 mg/kg body weight. Animals were then injected with nicotinamide (100 mg/kg, ip) and streptozotocin (65 mg/kg, iv). Four weeks later, plasma glucose concentration was determined by the glucose oxidase method (Chemistry Analyzer; Autoanalyzer Quik-Lab., Ames, Spain). Animals with fasting blood sugar levels around 200 mg/dl and the development of an obese phenotype are classified as being induced to NIDDM. Normal, IDDM, and NIDDM SD rats were fasted for 8 hrs and anesthetized by pentobarbital (30 mg/kg, ip). Animals were fed with different dosages of resveratrol (0.05 mg, 0.1 mg, or 0.5 mg per kg body weight), and blood samples were then collected from femoral vein at the time points 0, 60, 90, and 120 min. Ten μl plasma was mixed with 1 ml glucose kit reagent and incubated at 37° C. for 10 min. The blood sugar level was determined as described. Data were expressed as mean±standard error (S.E.). […] NIDDM rats were fed with resveratrol and blood sugar was then measured as described.

A further experiment has as its system normal SD rats. Nature of the experiment: Hypoglycemic effect in normal SD rats (blood sugar). The settings on record: for reduction of blood sugar: normal SD rats, 90 min after drug feeding. How it is done:
Eight week-old Sprague Dawley (SD) rats (body weight from 200 gm to 250 gm) were maintained in the Animal Center of the Chang (Jung Memorial Hospital, under an ambient temperature of 25±1° C. and a light-dark period of 12 hrs. Animals were fed with normal chow and water. Resveratrol was first dissolved in DMS0 and diluted to 0.05 mg, 0.1 mg and 0.5 mg per ml wit normal saline. Animals were fed with desired amounts of drug solutions though tubing from the mouth into the stomach. Normal, IDDM, and NIDDM SD rats were fasted for 8 hrs and anesthetized by pentobarbital (30 mg/kg, ip). Animals were fed with different dosages of resveratrol (0.05 mg, 0.1 mg, or 0.5 mg per kg body weight), and blood samples were then collected from femoral vein at the time points 0, 60, 90, and 120 min. Ten μl plasma was mixed with 1 ml glucose kit reagent and incubated at 37° C. for 10 min. The blood sugar level was determined as described. […]. Data were expressed as mean±standard error (S.E.). Statistical analysis was performed using ANOVA (analysis of variance) followed by Dunnett test, and the significant difference was set at P<0.05. Male SD rats were fed with resveratrol at 0.05 mg, 0.1 mg, or 0.5 mg per kg body weight and plasma glucose level was measured at 90 min after drug feeding.

Experiment [2] deals with SD rats injected with insulin. In words: Development of insulin resistance and body weight increase in insulin-injected SD rats. How it is done:
A. Insulin Resistance: Male SD rats were intraperitoneally injected with insulin (Monotard®HM; Novo Nordisk, Bagsvaerd, Denmark, 0.5 IU/kg, tid) for 2 weeks. The development of insulin resistance is confirmed by a tolbutamide test (11). Male SD rats were intraperitoneally injected with insulin at 0.5 IU/kg, tid with or without resveratrol feeding (0.5 mg/kg BW, bid) Animals without resveratrol feeding started to develop insulin resistance on day 16.5±1.5. In contrast, development of insulin resistance in the resveratrol-fed animals was delayed till 23.5±1.5 days. In addition, resveratrol reduced the body weight increase by 6% compared with the untreated insulin-resistant animals (FIG. 6)

Take `Oc1ccc(C=Cc2cc(O)cc(O)c2)cc1` [resveratrol]: the “reduction of blood sugar” value in the experiment on IDDM SD rats (0.1 mg/kg oral) is reported as 21.00±5.84%; in the experiment on IDDM SD rats (0.5 mg/kg oral) it was 23.00±1.89%; in experiment [1] (NIDDM insulin-resistant SD rats, 0.5 mg/kg oral, 90 min after drug feeding) it was 32.1±1.62%; in the experiment on NIDDM SD rats it was 28.3±1.67%; in the experiment with normal SD rats (0.1 mg/kg oral), 25.72±4.03%; in the experiment with normal SD rats (0.5 mg/kg oral) it was 35.53±2.0%. The “hypoglycemic effect, dose dependence” value in experiment [1] (NIDDM insulin-resistant rats, oral) is listed as “dose-dependent hypoglycemic effect”. The “blood sugar reduction, dose dependence” value with normal SD rats (normal SD rats, 0.05, 0.1, 0.5 mg/kg oral, 90 min) is recorded as “dose-dependent manner”. The “time to development of insulin resistance” value in experiment [2] (insulin 0.5 IU/kg ip tid with resveratrol feeding 0.5 mg/kg BW bid, without resveratrol day 16.5±1.5) is 23.5 ± 1.5 days. The “reduction of body weight increase compared with untreated insulin-resistant animals” value in experiment [2] (insulin-resistant SD rats, resveratrol 0.5 mg/kg BW bid) was determined as 6%.
